In US11840528B2 (Hoffmann-La Roche Inc., priority 2018, dated 2023):

Legend:
[1] = molecular target: T1, h-GABA-A α5β3γ2 (Homo sapiens, UniProt P18507+P31644); experiment: [3H]flumazenil competition binding assay, membranes of HEK293 cells expressing GABAA receptors; conditions: displacement of [3H]-Flumazenil 0.5 nM, HEK293 cells expressing human receptors, mean of two determinations; Table 1
In short: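 Membranes from HEK293 cells transiently expressing human α5β3γ2 GABAA receptors, in Krebs-tris buffer pH 7.5, competed against [3H]flumazenil for 1 hour at 4° C to equilibrium. Bound radioactivity collected on GF/C filters and counted by liquid scintillation; Ki values are means of two determinations.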

[2] = molecular target: T1, h-GABA-A α5β3γ2; experiment: Two-electrode voltage clamp electrophysiology in Xenopus laevis oocytes expressing GABAA receptors, modulation of GABA EC20 current; format: cell-based; parameters: host or cells: Xenopus laevis oocytes micro-injected with RNA transcripts of the subunits; conditions: Table 1; for Efficacy (GABA) %: % modulation of GABA EC20 = 100*(Fold increase-1); for Fold increase h-GABA-A α5β3γ2 oocyte: test compound at approx. 30 fold its Ki, GABA at EC20
In short: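 Human α5β3γ2 GABAA receptors were expressed in Xenopus oocytes by RNA injection, with γ2 RNA 5–10-fold higher, and recorded 3–5 days later by two-electrode voltage clamp at −80 mV at room temperature. The test compound, at about 30× its Ki, was co-applied during a second GABA EC20 pulse. Efficacy is the extremum of the point-by-point ratio to the first response, expressed as 100*(Fold increase−1).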

| Ki [1] [nM] | Efficacy (GABA) % [2] [%] | Fold increase h-GABA-A α5β3γ2 oocyte [2] | SMILES |
| --- | --- | --- | --- |
| 4 | 140 | 2.4 | Cc1ccc(-c2noc(C)c2Cn2ncc(N3CC4(CC(OC(F)F)C4)C3)cc2=O)nn1 [Example 315, 5-[6-(difluoromethoxy)-2-azaspiro[3.3]heptan-2-yl]-2-[[5-methyl-3-(6-methylpyridazin-3-yl)isoxazol-4-yl]methyl]pyridazin-3-one] |
| 13 | 132 | 2.32 | Cc1ccc(-c2noc(C)c2Cn2ncc(NC3CN(C4CC4)C3)cc2=O)cn1 [Example 96, 5-((1-cyclopropylazetidin-3-yl)amino)-2-((5-methyl-3-(6-methylpyridin-3-yl)isoxazol-4-yl)methyl)pyridazin-3(2H)-one] |
| 7.4 | 43 | 1.43 | COC1CN(c2cnn(Cc3c(-c4ccc(Cl)cc4)noc3C)c(=O)c2)C1 [Example 160, 2-[[3-(4-chlorophenyl)-5-methyl-isoxazol-4-yl]methyl]-5-(3-methoxyazetidin-1-yl)pyridazin-3-one] |
| 85 | 89 | 1.89 | COc1ccc(-c2cnn(Cc3c(-c4ccc(C)nc4)noc3C)c(=O)c2)nc1 [Example 84, 5-(5-methoxypyridin-2-yl)-2-((5-methyl-3-(6-methylpyridin-3-yl)isoxazol-4-yl)methyl)pyridazin-3(2H)-one] |
| 35.5 | 216 | 3.16 | COC1(C)CCN(c2cnn(Cc3c(-c4ccc(Cl)nc4)noc3C)c(=O)c2)CC1 [Example 262, 2-((3-(6-chloropyridin-3-yl)-5-methylisoxazol-4-yl)methyl)-5-(4-methoxy-4-methylpiperidin-1-yl)pyridazin-3(2H)-one] |
| 13.8 | 145 | 2.45 | Cc1ccc(-c2noc(C)c2Cn2ncc(N3CCN(C4CC4)CC3)cc2=O)cn1 [Example 36, 5-(4-cyclopropylpiperazin-1-yl)-2-[[5-methyl-3-(6-methyl-3-pyridyl)isoxazol-4-yl]methyl]pyridazin-3-one] |
| 16.6 | 83 | 1.83 | Cc1onc(-c2ccc(Cl)nc2)c1Cn1ncc(N2CC(OC(F)(F)F)C2)cc1=O [Example 251, 2-((3-(6-chloropyridin-3-yl)-5-methylisoxazol-4-yl)methyl)-5-(3-(trifluoromethoxy)azetidin-1-yl)pyridazin-3(2H)-one] |
| 15.4 | 48 | 1.48 | Cc1cc(-c2noc(C)c2Cn2ncc(N3CC4(CCCO4)C3)cc2=O)no1 [Example 142, 2-[[5-methyl-3-(5-methylisoxazol-3-yl)isoxazol-4-yl]methyl]-5-(5-oxa-2-azaspiro[3.4]octan-2-yl)pyridazin-3-one] |
| 43.3 | 250 | 3.5 | Cc1onc(-c2ccc(C(F)(F)F)nc2)c1Cn1ncc(N2CCN(C(=O)C3(C)CC3)CC2)cc1=O [Example 40, 5-[4-(1-methylcyclopropanecarbonyl)piperazin-1-yl]-2-[[5-methyl-3-[6-(trifluoromethyl)-3-pyridyl]isoxazol-4-yl]methyl]pyridazin-3-one] |
| 15.9 | 153 | 2.53 | Cc1ccc(-c2noc(C)c2Cn2ncc(N3CCN(C(=O)C4CC4)CC3)cc2=O)cn1 [Example 9, 5-(4-(cyclopropanecarbonyl)piperazin-1-yl)-2-((5-methyl-3-(6-methylpyridin-3-yl)isoxazol-4-yl)methyl)pyridazin-3(2H)-one] |
| 0.6 | 88 | 1.88 | Cc1cc(-c2noc(C)c2Cn2ncc(N3C[C@@H](C)O[C@@H](C)C3)cc2=O)no1 [Example 62, 5-(cis-2,6-dimethylmorpholin-4-yl)-2-[[5-methyl-3-(5-methylisoxazol-3-yl)isoxazol-4-yl]methyl]pyridazin-3-one] |
| 2 | 253 | 3.53 | Cc1ncc(-c2noc(C)c2Cn2ncc(N3C[C@@H](C)O[C@@H](C)C3)cc2=O)cc1F [Example 205, 5-((2R,6S)-2,6-dimethylmorpholino)-2-((3-(5-fluoro-6-methylpyridin-3-yl)-5-methylisoxazol-4-yl)methyl)pyridazin-3(2H)-one] |
| 0.6 | 106 | 2.06 | Cc1ccc(-c2noc(C)c2Cn2ncc(N(C)CC(C)(C)O)cc2=O)cn1 [Example 70, 5-((2-hydroxy-2-methylpropyl)(methyl)amino)-2-((5-methyl-3-(6-methylpyridin-3-yl)isoxazol-4-yl)methyl)pyridazin-3(2H)-one] |
| 43.4 | 85 | 1.85 | Cc1onc(-c2ccc(F)cc2)c1Cn1ncc(N2CCC(n3c(C)nnc3C)CC2)cc1=O [Example 55, 5-(4-(3,5-Dimethyl-4H-1,2,4-triazol-4-yl)piperidin-1-yl)-2-((3-(4-fluorophenyl)-5-methylisoxazol-4-yl)methyl)pyridazin-3(2H)-one] |
| 9.5 | 181 | 2.81 | Cc1ccc(-c2noc(C)c2Cn2ncc(N3CCN4C(=O)OCC4C3)cc2=O)cn1 (stereo not drawn) [Example 44, 7-(1-((5-methyl-3-(6-methylpyridin-3-yl)isoxazol-4-yl)methyl)-6-oxo-1,6-dihydropyridazin-4-yl)tetrahydro-1H-oxazolo[3,4-a]pyrazin-3(5H)-one] |
| 4.4 | 149 | 2.49 | Cc1onc(-c2ccc(Cl)nc2)c1Cn1ncc(N2CCO[C@@H](C)C2)cc1=O [Example 227, (S)-2-((3-(6-chloropyridin-3-yl)-5-methylisoxazol-4-yl)methyl)-5-(2-methylmorpholino)pyridazin-3(2H)-one] |
| 8.6 | 145 | 2.45 | Cc1ccc(-c2noc(C)c2Cn2ncc(N3CC[C@H](O)C3)cc2=O)cn1 [Example 4, 5-[(3S)-3-hydroxypyrrolidin-1-yl]-2-[[5-methyl-3-(6-methyl-3-pyridyl)isoxazol-4-yl]methyl]pyridazin-3-one] |
| 27.7 | 84 | 1.84 | Cc1onc(-c2ccc(Cl)nc2)c1Cn1ncc(N2CC3(CC(F)CCO3)C2)cc1=O (single isomer, unassigned) [Example 296, (R or S)-2-((3-(6-chloropyridin-3-yl)-5-methylisoxazol-4-yl)methyl)-5-(8-fluoro-5-oxa-2-azaspiro[3.5]nonan-2-yl)pyridazin-3(2H)-one] |
| 2.6 | 139 | 2.39 | Cc1onc(-c2ccc(Cl)cn2)c1Cn1ncc(N2CCN(C(=O)C3(C)CC3)CC2)cc1=O [Example 16, 2-((3-(5-Chloropyridin-2-yl)-5-methylisoxazol-4-yl)methyl)-5-(4-(1-methylcyclopropanecarbonyl)piperazin-1-yl)pyridazin-3(2H)-one] |
| 29.7 | 80 | 1.8 | Cc1ccc(-c2noc(C)c2Cn2ncc(-c3ccc(C4CC4)nc3)cc2=O)cn1 [Example 173, 5-(6-cyclopropyl-3-pyridyl)-2-[[5-methyl-3-(6-methyl-3-pyridyl)isoxazol-4-yl]methyl]pyridazin-3-one] |
| 9.2 | 210 | 3.1 | Cc1ccc(-c2noc(C)c2Cn2ncc(N3CCC(C)(O)C3)cc2=O)cn1 (stereo not drawn) [Example 118, 5-(3-hydroxy-3-methylpyrrolidin-1-yl)-2-((5-methyl-3-(6-methylpyridin-3-yl)isoxazol-4-yl)methyl)pyridazin-3(2H)-one] |
| 13 | 95 | 1.95 | Cc1ccc(-c2noc(C)c2Cn2ncc(N3CCC4(CCOCC4)CC3)cc2=O)cn1 [Example 226, 2-((5-methyl-3-(6-methylpyridin-3-yl)isoxazol-4-yl)methyl)-5-(3-oxa-9-azaspiro[5.5]undecan-9-yl)pyridazin-3(2H)-one] |
| 33.6 | 82 | 1.82 | Cc1onc(-c2ccc(Cl)nc2)c1Cn1ncc(N2CC3(CCCCO3)C2)cc1=O [Example 233, 2-((3-(6-chloropyridin-3-yl)-5-methylisoxazol-4-yl)methyl)-5-(5-oxa-2-azaspiro[3.5]nonan-2-yl)pyridazin-3(2H)-one] |
| 5.9 | 41 | 1.41 | Cc1cc(-c2noc(C)c2Cn2ncc(N3CCN(C4CC4)CC3)cc2=O)no1 [Example 63, 5-(4-cyclopropylpiperazin-1-yl)-2-[[5-methyl-3-(5-methylisoxazol-3-yl)isoxazol-4-yl]methyl]pyridazin-3-one] |

| SMILES | Ki [1] [nM] | Efficacy (GABA) % [2] [%] | Fold increase h-GABA-A α5β3γ2 oocyte [2] |
| --- | --- | --- | --- |
| Cc1onc(-c2ccc(Cl)nn2)c1Cn1ncc(N2CC(OC(C)(C)C)C2)cc1=O [Example 271, 5-(3-(tert-butoxy)azetidin-1-yl)-2-((3-(6-chloropyridazin-3-yl)-5-methylisoxazol-4-yl)methyl)pyridazin-3(2H)-one] | 7.3 | 90 | 1.9 |
